US20090016989A1, “ANTIBODIES TO HUMAN SOMATOSTATIN RECEPTOR AND METHODS OF USE” (priority 2007, published 2009)

How the values were obtained:
Type in all cases: cell-based, human
[1] = system: BON cells; experiment: MTS cell proliferation assay, growth doubling time
Method: The effects of anti-hSSTR subtype 2 and anti-hSSTR subtype 5 antibodies on cell proliferation were tested using CellTiter 96® Aqueous One Solution Cell Proliferation Assay (MTS) (Promega, Cat#G3581). The assay was performed to measure the growth doubling time for BON cells in vitro (FIG. 3, growth doubling time in hours is presented on the Y-axis). The growth doubling time for BON cells following treatment with rabbit IgG was around 28 to 30 hours (similar to vehicle alone). […] Cell growth was detected at 490 nm (colorimetric detection) by using instrument Victor 3V (Perkin Elmer) once every 24 hours in the duration of 96 hours.
The resulting maximal suppression in hours (20 hours) is designated as 100% of growth suppression. The difference measured in doubling time detected between experimental samples and untreated samples divided by the maximal suppression yields the percent growth suppression.
BON cells were seeded, grown and maintained in F12 HAM (Invitrogen, Cat#31765035)/D-MEM (Invitrogen, Cat#10567-014) (50/50) with 10% certified fetal bovine serum (FBS) (Invitrogen, Cat#16000-044) in 96-well cell culture dishes (Costar, Cat# 3590) at a density of 2500 cells/well. […] Cell growth was detected at 490 nm (colorimetric detection) by using instrument Victor 3V (Perkin Elmer) once every 24 hours in the duration of 96 hours.

[2] = system: BON cells; experiment: Guava Nexin apoptosis assay (Annexin V / 7-AAD); conditions: 10 μg/ml rabbit IgG or antibodies, 100 nM octreotide, % of Total
Method: Cells were then switched to growth media without FBS and allowed to grow for another 24 hours before applying treatments. Samples were collected and counted in accordance with Guava Technologies' Viacount Flex (Cat#4500-0110) instructions. At the end of each antibody treatment, cells were dissociated from the plate using 1× trypsin-EDTA (Invitrogen Cat#2520). […] Next, phosphate buffer solution (D-PBS) (Invitrogen Cat#14190-144) (Invitrogen) was used as the exchange buffer to resuspend the cell pellet. […] Detection was achieved by using Guava PCA96 instrument and data was analysed by using Guava Nexin software module as (Cat#0500-0250). […] Following the protocol for the Guava Nexin™ assay (Guava Technologies), two different dyes were used to stain for cells undergoing apoptosis: 7-AAD stains for dead and late apoptosis cells (upper right quadrant of each graph in FIG. 10), and Annexin V stains for cells undergoing apoptosis from the early stage (lower right quadrant of each graph in FIG. 10). […] Once every 24 hours for 72 hours (FIGS. 10B, 10C and 10D), cells were collected and tested for apoptosis status using the Guava Nexin™ assay (Guava Technologies).

[3] = system: BON cells; experiment: Cell number after 48-hour treatment (Viacount); conditions: after 2 days of daily treatment, 5 μg/ml antibody or rabbit IgG, 100 nM octreotide
Method: A serotonin ([…]) assay was performed using Serotonin EIA (Biosource, Cat# KAPL10-0900) to measure serotonin release by BON cells over a 48-hour period with or without treatment. […] After 24 hours, the BON cells were subjected to six different daily treatments (at maximum dosages) and grown in FBS-free cell growth media for 2 days in a sterile tissue culture chamber at 37° C. with 6% CO2. These six treatments were: […] The anti-hSSTR Abs (4)-(6) were antibodies produced in the experiment described in Example 1. At the end of each treatment, 1× Halt Protease Inhibitor cocktail (Pierce, Cat# 78415) was immediately added to each sample and the media was collected from each sample and used for Serotonin detection. Next, cells were dissociated from the plate using 2 ml of 1× trypsin-EDTA (Invitrogen Cat#2520) in cell growth media and incubated at 37° C. with 6% CO2 for 5 minutes. Subsequently, an additional 8 ml of cell growth media was added to neutralize trypsin-EDTA, and subjected to 1000 rpm at 4° C. in 15 ml Falcon tubes using Beckman table top centrifuge. Guava Technologies PCA-96 instrument (tabletop flow cytometer) and Viacount flex reagent (Guava Technologies, Cat# 4500-0100) were then used to determine the number of cells for the abovementioned treatments. The results were as follows: […]

[4] = system: BON cells; experiment: Guava Nexin apoptosis assay (Annexin V / 7-AAD); conditions: 10 μg/ml rabbit IgG or antibodies, 100 nM octreotide, % of Total; remark: listed apart in the source

C[C@@H](O)[C@@H]1NC(=O)[C@H](CCCCN)NC(=O)[C@@H](Cc2c[nH]c3ccccc23)NC(=O)[C@H](Cc2ccccc2)NC(=O)[C@@H](NC(=O)[C@H](N)Cc2ccccc2)CSSC[C@@H](C(=O)N[C@H](CO)[C@@H](C)O)NC1=O [octreotide]
approximate EC50 (growth) ([1]; octreotide 0.5, 1, 10 to 50 nM, FIG. 5): single nM | doubling time ([1]; saturating octreotide (50 nM)): ~50 h | 7-AAD+ ([2]; 24 hours after treatment): 1.1% | Annexin V+ ([2]; 24 hours after treatment): 4.3% | Early apoptotic cells (Lower Right Quadrant) ([2]; 24 hours after treatment): 3.3% | Late apoptotic cells (Upper Right Quadrant) ([2]; 24 hours after treatment): 1.0% | Nuclear Debris (Upper Left Quadrant) ([2]; 24 hours after treatment): 0.1% | 7-AAD+ ([2]; 48 hours after treatment): 10.9% | Annexin V+ ([2]; 48 hours after treatment): 13.7% | Early apoptotic cells (Lower Right Quadrant) ([2]; 48 hours after treatment): 3.8% | Nuclear Debris (Upper Left Quadrant) ([2]; 48 hours after treatment): 1.0% | 7-AAD+ ([2]; 72 hours after treatment): 19.8% | Annexin V+ ([2]; 72 hours after treatment): 26.9% | Early apoptotic cells (Lower Right Quadrant) ([2]; 72 hours after treatment): 7.7% | Late apoptotic cells (Upper Right Quadrant) ([2]; 72 hours after treatment): 19.2% | Nuclear Debris (Upper Left Quadrant) ([2]; 72 hours after treatment): 0.6% | number of cells [3]: 7 million cells | Live, healthy cells (Lower Left Quadrant) ([4]; 24 hours after treatment): 95.7% | Late apoptotic cells (Upper Right Quadrant) ([4]; 48 hours after treatment): 10.0% | Live, healthy cells (Lower Left Quadrant) ([4]; 48 hours after treatment): 85.4% | Live, healthy cells (Lower Left Quadrant) ([4]; 72 hours after treatment): 72.5%
